Results: patent publication US10590113B2, “6-hydroxy-4-oxo-1,4-dihydropyrimidine-5-carboxamides as APJ agonists” (priority 2016, dated 2020)
Where two headings read alike, the source gives them in different places.

Biological target: T1, human APJ receptor (Homo sapiens, UniProt P35414)
T1 construct: expressed in transfected cells; host or cells: HEK293
T1 sequence (P35414 1-380): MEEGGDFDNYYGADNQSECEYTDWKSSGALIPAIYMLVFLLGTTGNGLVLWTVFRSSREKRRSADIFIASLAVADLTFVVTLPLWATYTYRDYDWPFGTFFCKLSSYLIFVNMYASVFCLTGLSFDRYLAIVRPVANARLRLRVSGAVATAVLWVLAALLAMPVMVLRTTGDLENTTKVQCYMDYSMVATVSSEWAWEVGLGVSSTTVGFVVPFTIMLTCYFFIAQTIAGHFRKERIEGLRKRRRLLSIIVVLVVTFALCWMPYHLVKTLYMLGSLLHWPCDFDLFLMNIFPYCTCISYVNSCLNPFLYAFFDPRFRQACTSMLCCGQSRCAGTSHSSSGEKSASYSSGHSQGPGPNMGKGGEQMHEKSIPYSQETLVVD
Assay: Intracellular cAMP Accumulation Assay (APJ hcAMP, HTRF)
Format: cell-based
Procedure, shortened: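 Stably transfected HEK293 cells (5,000/well) incubated 30 min at room temperature with serially diluted compound, […] and 2 μM forskolin. cAMP measured by HTRF after 60 min with detection reagents, quantified against a cAMP standard curve; EC50 from variable-slope sigmoidal fit of inhibition of forskolin-stimulated cAMP.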

[1] = human APJ, intracellular cAMP accumulation, read-out: hAPJ cAMP EC50 Potency range
[2] = read-out: hAPJ cAMP EC50 Potency range
[3] = human APJ, cAMP accumulation, potency range class, read-out: hAPJ cAMP EC50 Potency range

SMILES	EC50 [1] [nM]	also measured
CCCCc1nc(=O)c(C(=O)N2CC[C@H](c3ccccc3)C2)c(O)n1[C@@H](C)c1ccccc1OC [Example 156, 2-butyl-6-hydroxy-3-[(1S)-1-(2-methoxyphenyl)ethyl]-5-[(3R)-3-phenylpyrrolidine-1-carbonyl]-3,4-dihydropyrimidin-4-one]	100 to 300	–
CCCCc1nc(=O)c(C(=O)N2CCC(Cc3ccc(C(F)(F)F)cc3)CC2)c(O)n1-c1c(OC)cccc1OC [Example 380, 2-butyl-1-(2,6-dimethoxyphenyl)-6-hydroxy-5-(4-(4-(trifluoromethyl)benzyl)piperidine-1-carbonyl)pyrimidin-4(1H)-one]	–	EC50 [2]: 0.01 to 10 nM
CCCCc1nc(=O)c(C(=O)N2CC[C@@H](c3ccccc3)C2)c(O)n1[C@H](CC)c1ccccc1 [Example 128, 2-butyl-6-hydroxy-3-[(1R)-1-phenylpropyl]-5-[(3S)-3-phenylpyrrolidine-1-carbonyl]-3,4-dihydropyrimidin-4-one]	10 to 100	–
CCOCc1nc(=O)c(C(=O)N2CCC(Cc3ccc(Cl)cc3)CC2)c(O)n1-c1c(OC)cccc1OC [Example 375, 5-(4-(4-chlorobenzyl)piperidine-1-carbonyl)-1-(2,6-dimethoxyphenyl)-2-(ethoxymethyl)-6-hydroxypyrimidin-4(1H)-one]	–	EC50 [2]: 0.01 to 10 nM
CCCCc1nc(=O)c(C(=O)N2CC[C@H](c3ccccc3)C2)c(O)n1C(C)c1ccncc1 (stereo partly drawn) [Example 148, 2-butyl-6-hydroxy-5-[(3R)-3-phenylpyrrolidine-1-carbonyl]-3-[1-(pyridin-4-yl)ethyl]3,4-dihydropyrimidin-4-one]	10 to 100	–
COc1cccc(OC)c1-n1c(-c2ccnc(C)c2)nc(=O)c(C(=O)N2CCC(c3ccc(F)cc3F)C2)c1O (single isomer, unassigned) [Example 254, 5-[3-(2,4-difluorophenyl)pyrrolidine-1-carbonyl]-1-(2,6-dimethoxyphenyl)-6-hydroxy-2-(2-methylpyridin-4-yl)-1,4-dihydropyrimidin-4-one]	–	EC50 [3]: 0.01 to 10 nM
COc1cccc(OC)c1-n1c(COC(C)C)nc(=O)c(C(=O)N2CCC(c3ccccc3C)C2)c1O (single isomer, unassigned) [Example 98, 1-(2,6-dimethoxyphenyl)-6-hydroxy-5-[3-(2-methylphenyl)pyrrolidine-1-carbonyl]-2-[(propan-2-yloxy)methyl]-1,4-dihydropyrimidin-4-one]	0.01 to 10	–
CC[C@@H](c1cc(F)cc(F)c1)n1c(-c2nc(C)cs2)nc(=O)c(C(=O)N2CCC(c3ccc(F)cc3)C2)c1O (single isomer, unassigned) [Example 211]	0.01 to 10	–
CCCCc1nc(=O)c(C(=O)N2CC[C@H](c3ccccc3)C2)c(O)n1[C@H](C)C1CC1 [Example 142, 2-butyl-3-[(1R)-1-cyc1opropylethyl]-6-hydroxy-5-[(3R)-3-phenylpyrrolidine-1-carbonyl]-3,4-dihydropyrimidin-4-one]	10 to 100	–
CCOCc1nc(=O)c(C(=O)N2CCC(c3ccccc3C#N)C2)c(O)n1-c1c(OC)cccc1OC (single isomer, unassigned) [Example 362, 2-(1-(1-(2,6-dimethoxyphenyl)-2-(ethoxymethyl)-6-hydroxy-4-oxo-1,4-dihydropyrimidine-5-carbonyl)pyrrolidin-3-yl)benzonitrile]	–	EC50 [3]: 0.01 to 10 nM
CCCCc1nc(=O)c(C(=O)N2CC[C@@H](c3ccccc3)C2)c(O)n1C(c1ccccc1)C(C)C (stereo partly drawn) [Example 129, 2-butyl-6-hydroxy-3-(2-methyl-1-phenylpropyl)-5-[(3S)-3-phenylpyrrolidine-1-carbonyl]-3,4-dihydropyrimidin-4-one]	10 to 100	–
CCOCc1nc(=O)c(C(=O)N2CCC(c3ccccc3C#N)C2)c(O)n1-c1c(OC)cccc1OC (single isomer, unassigned) [Example 363, 2-(1-(1-(2,6-dimethoxyphenyl)-2-(ethoxymethyl)-6-hydroxy-4-oxo-1,4-dihydropyrimidine-5-carbonyl)pyrrolidin-3-yl)benzonitrile]	–	EC50 [3]: 0.01 to 10 nM
CC[C@@H](c1cc(F)cc(F)c1)n1c(-c2ccn(CC)n2)nc(=O)c(C(=O)N2CCC(c3ncccc3F)C2)c1O (single isomer, unassigned) [Example 212]	0.01 to 10	–
CCOCc1nc(=O)c(C(=O)N2CC[C@@H](c3ccccc3)C2)c(O)n1-c1c(OC)cccc1OC [Example 29, (S)-1-(2,6-dimethoxyphenyl)-2-(ethoxymethyl)-6-hydroxy-5-(3-phenylpyrrolidine-1-carbonyl)pyrimidin-4(1H)-one]	–	EC50: 0.01 to 10 nM
CCCCc1nc(=O)c(C(=O)N2CCN(Cc3cccc(F)c3)CC2)c(O)n1-c1c(OC)cccc1OC [Example 69, 2-butyl-1-(2,6-dimethoxyphenyl)-5-{4-[(3-fluorophenyl)methyl]piper-azine-1-carbonyl}-6-hydroxy-1,4-dihydropyrimidin-4-one]	0.01 to 10	–
CC[C@@H](c1cc(F)cc(F)c1)n1c(-c2ccn(C)n2)nc(=O)c(C(=O)N2CCC(c3cc(F)ccn3)C2)c1O (single isomer, unassigned) [Example 200]	0.01 to 10	–
COc1ccccc1C1CCN(C(=O)c2c(O)n(-c3c(OC)cccc3OC)c(COC(C)C)nc2=O)C1 (single isomer, unassigned) [Example 161, 1-(2,6-dimethoxy-phenyl)-6-hydroxy-5-[3-(2-methoxy-phenyl)pyrrolidine-1-carbonyl]-2-[(propan-2-yloxy)methyl]-1,4-dihydropyrimidin-4-one]	0.01 to 10	–
CC[C@@H](c1cc(F)cc(F)c1)n1c(-c2nc(C)cs2)nc(=O)c(C(=O)N2CCC(c3ncc(F)cc3F)C2)c1O (single isomer, unassigned) [Example 210]	0.01 to 10	–
COc1cccc(OC)c1-n1c(COC(C)C)nc(=O)c(C(=O)N2CCC(c3ccccc3C#N)C2)c1O (single isomer, unassigned) [Example 167]	0.01 to 10	–
CCc1cccc(CC)c1-n1c(-c2ccn(C3CC3)n2)nc(=O)c(C(=O)N2CC[C@@H](c3ccccc3)C2)c1O [Example 316, 2-(1-cyclopropyl-1H-pyrazol-3-yl)-1-(2,6-diethylphenyl)-6-hydroxy-5-[(3S)-3-phenylpyrrolidine-1-carbonyl]-1,4-dihydropyrimidin-4-one]	–	EC50 [3]: 0.01 to 10 nM
COc1cccc(OC)c1-n1c(-c2ccc(F)c(C)c2)nc(=O)c(C(=O)N2CCC(c3ncccc3F)C2)c1O (single isomer, unassigned) [Example 255, 1-(2,6-dimethoxyphenyl)-2-(4-fluoro-3-methylphenyl)-5-[3-(3-fluoropyridin-2-yl)pyrrolidine-1-carbonyl]-6-hydroxy-1,4-dihydropyrimidin-4-one]	–	EC50 [3]: 0.01 to 10 nM
CCCCc1nc(=O)c(C(=O)N2CC[C@@H](c3ccccc3)C2)c(O)n1[C@@H](C)c1ccc(F)cc1 [Example 143, 2-butyl-3-[(1S)-1-(4-fluorophenyl)ethyl]-6-hydroxy-5-[(3S)-3-phenylpyrrolidine-1-carbonyl]-3,4-dihydropyrimidin-4-one]	10 to 100	–
CCc1cccc(CC)c1-n1c(-c2csc(C)n2)nc(=O)c(C(=O)N2CCC(c3ncc(F)cc3F)C2)c1O (single isomer, unassigned) [Example 298, 1-(2,6-diethylphenyl)-5-[3-(3,5-difluoropyridin-2-yl)pyrrolidine-1-carbonyl]-6-hydroxy-2-(2-methyl-1,3-thiazol-4-yl)-1,4-dihydropyrimidin-4-one]	–	EC50 [3]: 0.01 to 10 nM
CC[C@@H](c1cc(F)cc(F)c1)n1c(-c2nc(C)cs2)nc(=O)c(C(=O)N2CCC(c3ccccc3F)C2)c1O (single isomer, unassigned) [Example 208]	0.01 to 10	–
COc1cccc(OC)c1-n1c(CCC2CC2)nc(=O)c(C(=O)N2CCC(c3ccc(F)cn3)C2)c1O (single isomer, unassigned) [Example 177, 2-(2-cyclopropylethyl)-1-(2,6-dimethoxyphenyl)-5-[3-(5-fluoropyridin-2-yl)pyrrolidine-1-carbonyl]-6-hydroxy-1,4-dihydropyrimidin-4-one]	0.01 to 10	–
CCc1cccc(CC)c1-n1c(COC(C)C)nc(=O)c(C(=O)N2CC[C@H](c3ccccc3)C2)c1O [Example 17, (R)-3-(2,6-diethylphenyl)-6-hydroxy-2-(isopropoxymethyl)-5-(3-phenylpyrrolidine-1-carbonyl)pyrimidin-4(3H)-one]	0.01 to 10	–
CCCc1nc(=O)c(C(=O)N2CC[C@@H](c3ccccc3)C2)c(O)n1[C@@H](COC)c1ccccc1 [Example 330, 6-hydroxy-3-[(1R)-2-methoxy-1-phenylethyl]-5-[(3S)-3-phenylpyrrolidine-l-carbonyl]-2-propyl-3,4-dihydropyrimidin-4-one]	–	EC50 [3]: 10 to 100 nM
CCCCc1nc(O)c(C(=O)N2CC[C@@H](c3ccccc3)C2)c(=O)n1-c1c(CC)cccc1CC [Example 86, 2-butyl-3-(2,6-diethylphenyl)-6-hydroxy-5-[(3S)-3-phenylpyrrolidine-1-carbonyl]-3,4-dihydropyrimidin-4-one]	–	EC50: 0.01 to 10 nM

Continued, in another order:

EC50 [1] [nM]	SMILES	also measured
0.01 to 10	CC[C@@H](c1cc(F)cc(F)c1)n1c(-c2cnn(C)c2)nc(=O)c(C(=O)N2CCC(c3ncc(F)cc3F)C2)c1O (single isomer, unassigned) [Example 217]	–
0.01 to 10	CC[C@@H](c1cc(F)cc(F)c1)n1c(-c2cnn(C)c2)nc(=O)c(C(=O)N2CCC(c3ccc(Cl)cn3)C2)c1O (single isomer, unassigned) [Example 218]	–
